Measured values published in the supplement of paper PMC10307832.

Experiments:
Test in all cases: relative viability (nuclei count vs DMSO), 5 days (fraction); higher = more cells survive
[1] = compound: C[C@@H](N)c1ccc(C(=O)Nc2ccnc3[nH]ccc23)cc1 + CC1(C)CCC(c2ccc(Cl)cc2)=C(CN2CCN(c3ccc(C(=O)NS(=O)(=O)c4ccc(N[C@H](CCN5CCOCC5)CSc5ccccc5)c(S(=O)(=O)C(F)(F)F)c4)cc3)CC2)C1 [Navitoclax] (partner 0.5 µM)
Method in brief: (§1)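 A single step with final 0.05% Triton X-100, 1% formaldehyde and 1 ug/ml Hoechst fixed the cells and stained nuclei 5 days after treatment. Lung cancer cell lines in 1536-well plates had been treated by pin tool the day after seeding with one drug alone or a fixed anchor-drug dose plus five library-drug doses (not always all listed) in √10 steps, and nuclei were counted on 4× images. Relative viability is the ratio of nuclei in treated wells to nuclei in vehicle wells, taken as the median of duplicate plates.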

[2] = compound: O[C@H]1CC[C@H](Nc2ncc3nc(Nc4c(F)cc(F)cc4F)n([C@H]4CCOC4)c3n2)CC1 [Tanzisertib] + CC(=O)c1c(C)c2cnc(Nc3ccc(N4CCNCC4)cn3)nc2n(C2CCCC2)c1=O [Palbociclib] (partner 0.5 µM)
Method in brief: as §1

Tanzisertib + Luminespib = compound: O[C@H]1CC[C@H](Nc2ncc3nc(Nc4c(F)cc(F)cc4F)n([C@H]4CCOC4)c3n2)CC1 [Tanzisertib] + CCNC(=O)c1noc(-c2cc(C(C)C)c(O)cc2O)c1-c1ccc(CN2CCOCC2)cc1 [Luminespib] (partner 0.01 µM)
Method in brief: as §1

Tanzisertib + Lapatinib = compound: O[C@H]1CC[C@H](Nc2ncc3nc(Nc4c(F)cc(F)cc4F)n([C@H]4CCOC4)c3n2)CC1 [Tanzisertib] + CS(=O)(=O)CCNCc1ccc(-c2ccc3ncnc(Nc4ccc(OCc5cccc(F)c5)c(Cl)c4)c3c2)o1 [Lapatinib] (partner 2 µM)
Method in brief: as §1

Cell Line	relative viability ([1]; first compound 0.04 µM)	relative viability ([1]; first compound 0.1265 µM)	relative viability ([1]; first compound 0.4 µM)	relative viability ([1]; first compound 1.265 µM)	relative viability ([1]; first compound 4 µM)	relative viability ([2]; first compound 0.08 µM)	relative viability ([2]; first compound 0.253 µM)	relative viability ([2]; first compound 0.8 µM)	relative viability ([2]; first compound 2.53 µM)	relative viability ([2]; first compound 8 µM)	relative viability (Tanzisertib + Luminespib; first compound 0.08 µM)	relative viability (Tanzisertib + Luminespib; first compound 0.253 µM)	relative viability (Tanzisertib + Luminespib; first compound 0.8 µM)	relative viability (Tanzisertib + Luminespib; first compound 2.53 µM)	relative viability (Tanzisertib + Luminespib; first compound 8 µM)	relative viability (Tanzisertib + Lapatinib; first compound 0.08 µM)	relative viability (Tanzisertib + Lapatinib; first compound 0.253 µM)	relative viability (Tanzisertib + Lapatinib; first compound 0.8 µM)	relative viability (Tanzisertib + Lapatinib; first compound 2.53 µM)	relative viability (Tanzisertib + Lapatinib; first compound 8 µM)
LU99A	0.834	0.851	0.967	0.839	0.798	0.405	0.377	0.378	0.399	0.389	0.204	0.238	0.239	0.26	0.227	1.1	0.934	0.934	1.11	1.2
LXF-289	1.01	0.915	1.02	1.07	0.876	0.596	0.592	0.647	0.574	0.65	0.66	0.621	0.684	0.675	0.643	0.99	0.883	0.983	0.926	0.977
NCI-H23	1.06	0.963	0.986		0.582	0.479	0.53	0.512	0.493	0.514	0.262	0.227	0.203	0.228	0.199	1.4	0.998	0.964	1.05	0.936
NCI-H322M	1.2	1.21	1.36		1.55	0.475	0.459	0.475	0.472	0.534	0.834	0.751	0.87	0.932	0.951	0.621	0.61	0.567	0.626	0.571
NCI-H460	1.16	1.08	1.22	1.14	0.825	0.199	0.193	0.113	0.161	0.13	0.0366	0.0372	0.0359	0.0394	0.0394	0.968	0.959	0.949	0.952	1.05
NCI-H520	1.03	1.01	1.05	1.14	1.14	0.274	0.201	0.227	0.227	0.239	0.255	0.253	0.218	0.227	0.202	0.834	0.804	0.827	0.789	0.819
NCI-H647	0.978	1.19	0.942		0.762	0.364	0.506	0.381	0.427	0.439	0.152	0.12	0.196	0.158	0.336	1.28	1.23	1.01	1.31	0.917
NCI-H727	0.524	0.579	0.676	0.484	0.411	0.74	0.673	0.614	0.676	0.626	0.365	0.345	0.339	0.375	0.728	0.934	0.872	0.952	0.988	0.842
NCI-H838	1.08	1.1	0.84	0.714	0.524	0.233	0.225	0.219	0.228	0.198	0.293	0.34	0.277	0.248	0.209	1.22	0.993	1.04	0.998	0.958
NCI-H1355	1.01	0.986	1.04		0.748	0.435	0.398	0.4	0.438	0.382	0.77	0.697	0.805	0.725	0.628	1.02	1.03	1.05	1.06	1.05
NCI-H1395	1.04	1.32	1.11		0.876	0.71	0.574	0.607	0.618	0.632	0.786	0.525	0.632	0.717	0.547	1.02	1.1	1.08	0.985	0.914
NCI-H1437	1.11	1.06	1.15	1.1	0.993	0.333	0.291	0.315	0.32	0.262	1.18	1.14	1.04	1.27	1.21	0.831	0.859	0.787	0.824	0.778
NCI-H1650	1.35	1.3	1.4	1.45	0.863	0.297	0.326	0.404	0.351	0.314	0.233	0.215	0.206	0.2	0.196	0.958	0.759	0.838	0.842	0.331
NCI-H1651	1.07	1	1.11	1.26	1.11	0.552	0.537	0.508	0.502	0.519	0.989	0.802	0.746	0.921	0.729	0.898	1.03	0.797	0.782	0.864
NCI-H1666	1.05	1.21	1.09	1.19	1.17	0.675	0.729	0.65	0.688	0.639	1.01	0.924	1.05	1.19	1.18	0.669	0.67	0.901	0.622	0.725
NCI-H1734	0.943	0.82	0.81		0.443	0.361	0.335	0.321	0.343	0.354	0.208	0.206	0.214	0.197	0.203	1.15	1.13	0.952	1.16	1.08

Cell Line	relative viability ([1]; first compound 0.04 µM)	relative viability ([1]; first compound 0.1265 µM)	relative viability ([1]; first compound 0.4 µM)	relative viability ([1]; first compound 1.265 µM)	relative viability ([1]; first compound 4 µM)	relative viability ([2]; first compound 0.08 µM)	relative viability ([2]; first compound 0.253 µM)	relative viability ([2]; first compound 0.8 µM)	relative viability ([2]; first compound 2.53 µM)	relative viability ([2]; first compound 8 µM)	relative viability (Tanzisertib + Luminespib; first compound 0.08 µM)	relative viability (Tanzisertib + Luminespib; first compound 0.253 µM)	relative viability (Tanzisertib + Luminespib; first compound 0.8 µM)	relative viability (Tanzisertib + Luminespib; first compound 2.53 µM)	relative viability (Tanzisertib + Luminespib; first compound 8 µM)	relative viability (Tanzisertib + Lapatinib; first compound 0.08 µM)	relative viability (Tanzisertib + Lapatinib; first compound 0.253 µM)	relative viability (Tanzisertib + Lapatinib; first compound 0.8 µM)	relative viability (Tanzisertib + Lapatinib; first compound 2.53 µM)	relative viability (Tanzisertib + Lapatinib; first compound 8 µM)
NCI-H1755	1.04	0.985	0.962	0.933	0.622	0.434	0.453	0.433	0.44	0.439	0.415	0.51	0.473	0.374	0.547	1.06	0.98	0.995	1.07	0.968
NCI-H1792	0.668	0.592	0.644	0.415	0.567	0.7	0.66	0.654	0.64	0.573	0.413	0.402	0.447	0.448	0.344	1.01	0.967	0.867	0.825	0.798
NCI-H1793	0.415	0.421	0.409		0.501	0.306	0.326	0.347	0.293	0.303	0.174	0.216	0.2	0.165	0.216	0.737	0.873	0.74	0.608	0.643
NCI-H1915	0.755	0.792	0.817		0.723	0.58	0.514	0.55	0.506	0.476	0.875	0.839	0.808	0.789	0.776	0.994	1	0.897	1.02	0.947
NCI-H1944	1.05	1.01	1.06		0.876	0.322	0.343	0.324	0.339	0.295	0.858	0.84	0.749	0.658	0.73	0.949	0.935	0.862	0.873	0.796
NCI-H1975	1.13	0.978	0.995	0.652	0.434	0.735	0.575	0.515	0.562	0.549	0.331	0.142	0.232	0.161	0.247	1.06	0.944	0.87	0.942	0.912
NCI-H1993	0.904	1.01		0.901	0.947	0.652	0.531	0.611	0.617	0.595	0.879	0.783	0.915	0.714	1	0.815	0.846	0.914	0.777	0.748
NCI-H2009	1.03	1.13	1.05	1.01	0.801	0.201	0.209	0.263	0.278	0.187	1.09	1.06	1.11	1.02	1.04	1.12	0.983	0.847	1.05	0.296
NCI-H2023	1.09	1.02	1.08	1.07	0.799	0.335	0.406	0.406	0.325	0.328	0.966	0.762	0.826	0.628	0.696	0.92	0.809	0.867	0.925	0.261
NCI-H2085	1.23	1.14	1.19	1.09	1		0.456	0.454	0.455	0.505	0.525	0.406	0.443	0.459	0.457	0.794	0.726	0.818	0.83	0.755
NCI-H2087	0.911	0.917	0.903	0.903	0.855	0.256	0.308	0.254	0.235	0.255	0.182	0.2	0.166	0.21	0.168	1.19	1.08	1.2	1.07	0.974
NCI-H2126	0.885	0.824	0.908	0.885	0.816	0.34	0.355	0.349	0.37	0.324	0.919	0.897	0.887	0.961	0.993	0.772	0.807	0.82	0.694	0.724
NCI-H2170	0.682	0.564	0.57	0.61	0.479	0.415	0.39	0.36	0.428	0.406	0.857	0.739	0.633	0.684	0.78	0.285	0.252	0.26	0.262	0.253
NCI-H2228	0.897	1.08	1.03	0.985	0.963	1.12	0.818	0.684	0.741	0.655	0.2	0.188	0.173	0.162	0.132	1.27	1.15	1.13	1.23	1.13
NCI-H2347	0.806	0.86	0.846	0.89	0.752	0.466	0.457	0.452	0.444	0.435	0.494		0.581	0.571	0.511	1.05	1.01	0.971	1.07	0.869
NCI-H2405		0.799	0.513	0.41	0.279	0.508	0.502	0.55	0.546	0.47	0.716	0.713	0.577	0.676	0.609	1.26	1.11	1.1	1.36	0.612
